{
  "source": "ChEMBL document CHEMBL5579811",
  "about": "“Synthesis, SARS-CoV-2 main protease inhibition, molecular docking and in silico ADME studies of furanochromene-quinoline hydrazone derivatives” (Bioorg Med Chem Lett, 2024)",
  "data": [
    {"molecular_target": "Replicase polyprotein 1ab (Severe acute respiratory syndrome coronavirus 2, UniProt P0DTD1)", "assay": "Inhibition of SARS-COV-2 main protease using fluorogenic substrate (DABCYL)-Lys-Thr- Ser-Ala-Val-Leu-Gln-Ser-Gly-Phe-Arg-Lys-Met-Glu-(EDANS)-NH2 measured every 5 mins for 50 mins by plate reader assay", "units": {"IC50": "µM"}, "values": [
      {"compound": "CC1(C)C=Cc2c(ccc3cc(C(=O)N/N=C/c4ccc5cccc(O)c5n4)oc23)O1", "IC50": 183},
      {"compound": "CC1(C)C=Cc2c(ccc3cc(C(=O)N/N=C/c4ccnc5ccccc45)oc23)O1", "IC50": 129},
      {"compound": "CC1(C)C=Cc2c(ccc3cc(C(=O)N/N=C/c4cnc5ccccc5c4)oc23)O1", "IC50": 29.7},
      {"compound": "CC1(C)C=Cc2c(ccc3cc(C(=O)N/N=C/c4ccc5ncccc5c4)oc23)O1", "IC50": 34.1},
      {"compound": "CC1(C)C=Cc2c(ccc3cc(C(=O)N/N=C/c4cccc5cccnc45)oc23)O1", "IC50": 16.1},
      {"compound": "CC1(C)C=Cc2c(ccc3cc(C(=O)N/N=C/c4ccc5ccccc5n4)oc23)O1", "IC50": "> 250"},
      {"compound": "CC1(C)C=Cc2c(ccc3cc(C(=O)N/N=C/c4cccc5ncccc45)oc23)O1", "IC50": 43.1}
    ]}
  ]
}
